The test system of experiment [1] is ApoE2/E2 dyslipidemic mouse. As to the kind of experiment: Plasma lipids in the ApoE2/E2 dyslipidemic mouse. It counts as in vivo. The settings on record: 7 days. As to the method:
The hypolipemic properties of the compounds according to the invention were evaluated in vivo by determination of plasma lipids and by analysis of gene expression of targets genes of PPARs in the liver after oral treatment of a dyslipidemic mouse with the compounds according to the invention.
The murine model used is the mouse of type ApoE2/E2, a mouse transgenic for the E2 isoform of human apolipoprotein E (Sullivan P M et al., 1998). In humans, this apolipoprotein, a constituent of low and very low density lipoproteins (LDL-VLDL), occurs in three isoforms E2, E3 and E4. […] Because of this, clearance of VLDLs is almost zero. This leads to accumulation of […] and mixed, so-called type III hyperlipidemia (raised cholesterol and triglycerides).
PPARα regulates the expression of genes involved in lipid transport (apolipoproteins such as Apo AI, Apo AII and Apo CIII, membrane transporters such as FAT) or the catabolism of lipids (ACO, CPT-I or CPT-II, enzymes of β-oxidation of fatty acids). Treatment with PPARα activators is therefore reflected, both in humans and in rodents, in a decrease in levels of circulating triglycerides. Measurement of plasma lipids after treatment with the compounds according to the invention is therefore an indicator of the PPARα agonist character and therefore of the hypolipemic action of the compounds according to the invention.
Apo E2/E2 transgenic mice were kept in a cycle of light and darkness of 12 hours/12 hours at a constant temperature of 20±3° C. After acclimation for one week, the mice were weighed and put into groups of 6 animals selected in such a way that the distribution of their bodyweight and of their plasma lipid values determined first before the experiment are uniform. The compounds tested were suspended in carboxymethylcellulose (Sigma C4888) and administered at the chosen dose by stomach tube, at a rate of once a day for 7 days at the chosen dose. The animals had free access to water and food. At the end of the experiment, the animals were anesthetized after fasting for 4 hours, a blood sample was taken on anticoagulant (EDTA), then the mice were weighed and euthanased. The plasma was separated by centrifugation at 3000 rev/min for 20 minutes, and the samples were stored at +4° C. for the biochemical assays. Samples of liver were taken and frozen immediately in liquid nitrogen and then stored at −80° C. for subsequent analyses.
The plasma concentrations of lipids (total cholesterol, HDL-cholesterol, and free fatty acids) were measured by enzyme assays (bioMérieux-Lyons-France) according to the supplier's recommendations.

In another experiment the target is T1, hPPARδ (Homo sapiens, UniProt Q03181).
T1 construct: corresponding to the DEF domains (structural elements of the promoter of the PPARs: D=hinge, EF=ligand fixation domain and AF2 fixation site); expressed in transfected cells; host or cells: COS-7 (monkey kidney fibroblasts)
T1 sequence (Q03181 211-439 limits assumed): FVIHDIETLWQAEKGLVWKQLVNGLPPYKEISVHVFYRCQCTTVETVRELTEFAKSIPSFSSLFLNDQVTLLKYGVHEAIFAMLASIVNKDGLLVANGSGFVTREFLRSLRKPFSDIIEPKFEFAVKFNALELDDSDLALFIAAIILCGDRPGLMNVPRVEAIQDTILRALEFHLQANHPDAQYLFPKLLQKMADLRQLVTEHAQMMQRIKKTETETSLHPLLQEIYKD
Kind of experiment: Gal4-hPPARδ chimera transactivation (luciferase) in COS-7 cells. It counts as cell-based. The note with it: COS-7 cells, Gal4-hPPARδ, 24 hours; for EC50: luciferase, read-out: PPARδ EC50; for Emax: relative to maximum activation obtained with GW501516, read-out: PPARδ TOP % (maximum activation). Summed up: (§1)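 COS-7 cells transfected with Gal4-DBD fused to human PPARγ or PPARδ DEF (hinge/ligand-binding) domain plus Gal4(RE)_TkpGL3 luciferase reporter (1:10).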

The next experiment addresses T2, hPPARγ (Homo sapiens, UniProt P37231).
T2 construct: corresponding to the DEF domains (structural elements of the promoter of the PPARs: D=hinge, EF=ligand fixation domain and AF2 fixation site); expressed in transfected cells; host or cells: COS-7 (monkey kidney fibroblasts)
T2 sequence (P37231 238-503 limits assumed): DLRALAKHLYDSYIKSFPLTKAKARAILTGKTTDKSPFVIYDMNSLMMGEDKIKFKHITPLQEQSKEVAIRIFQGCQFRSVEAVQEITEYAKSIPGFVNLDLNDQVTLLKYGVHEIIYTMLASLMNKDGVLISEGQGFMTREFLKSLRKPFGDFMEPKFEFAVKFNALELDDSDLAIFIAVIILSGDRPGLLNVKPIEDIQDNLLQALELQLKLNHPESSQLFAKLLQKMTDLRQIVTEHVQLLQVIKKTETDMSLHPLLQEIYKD
Kind of experiment: Gal4-hPPARγ chimera transactivation (luciferase) in COS-7 cells. It counts as cell-based. The settings on record: 24 hours; for EC50: luciferase, read-out: PPARγ EC50; for Emax: relative to maximum activation obtained with rosiglitazone, read-out: PPARγ TOP % (maximum activation). The procedure, abridged: as §1

As usually defined, the EC50 is the midpoint of the concentration-response curve.

Consider `COc1nc(-c2ccccc2)ccc1COc1ccc(OCC(=O)O)cc1` [Cpd 2, 2-(4-((2-methoxy-6-phenylpyridin-3-yl)methoxy)phenoxy)ethanoic acid], for which, in experiment [1] (10 and 100 mpk oral), the “plasma level of HDL-cholesterol” value is “dose-dependent increase” and the plasma total cholesterol result is “decreased”. Further, at hPPARδ, the EC50 was 2 µM and the Emax was 109%. At hPPARγ, the EC50 was found to be 12.4 µM and the Emax stood at 39.1%.
As for `COc1nc(-c2ccccc2)ccc1CNc1ccc(OCC(=O)O)cc1` [Cpd 4, 2-(4-(((2-methoxy-6-phenylpyridin-3yl)methyl)amino)phenoxy)ethanoic acid], in experiment [1] (10 and 100 mpk oral), the “plasma level of HDL-cholesterol” value is “dose-dependent increase” and the plasma total cholesterol entry was “decreased”. Besides, on hPPARδ, the EC50 worked out at 8.67 µM and the Emax was determined as 115%. Also, on hPPARγ, the EC50 was 17.7 µM and the Emax turned out to be 70.5%.
With `COc1nc(-c2ccc(C(F)(F)F)cc2)ccc1COc1ccc(OCC(=O)O)cc1` [Cpd 24, 2-(4-((2-methoxy-6-(4-(trifluoromethyl)phenyl)pyridin-3-yl)methoxy)-phenoxy)ethanoic acid], the EC50 is 0.784 µM at hPPARδ and 4.49 µM at hPPARγ. Moreover, the Emax at hPPARδ is 94.1%; at hPPARγ, 65.7%.
As to `COc1nc(-c2ccccc2)ccc1CNc1ccc(CCC(=O)O)cc1` [Cpd 19, 3-(4-(((2-methoxy-6-phenylpyridin-3-yl)methyl)amino)phenyl)propanoic acid], in experiment [1] (100 mpk oral), the “plasma level of free fatty acids” value was “decrease” and the plasma total cholesterol result is listed as “decreased”. At hPPARδ, the EC50 is 3.13 µM and the Emax was 95.1%. Also, on hPPARγ, the EC50 is 1.29 µM and the Emax stood at 87%.

For the origin of these results see patent US8461183B2, “PPAR agonist compounds, preparation and uses” (Genfit, priority 2008, dated 2013).
